From US20190375778A1, “ADENOSINE DERIVATIVES FOR USE IN THE TREATMENT OF CANCER” (NuCana plc, priority 2016, published 2019)
Like-named read-outs stand apart in the source and are kept apart here.

Assays:
RPMI-8226 = assay: CellTiterGlo viability assay, RPMI-8226; type: cell-based, Human; conditions: Homo sapiens, read-out: IC50 RPMI-8226
Summary of the method: (§1)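 Compounds serially diluted 3.16-fold in DMSO, prewarmed in media to 37 °C, and added to cells in duplicate (9 concentrations, 198 μM to 19.9 nM final, 0.5% DMSO). Plates incubated 3 days in a CO2 incubator, then viability read with CellTiterGlo.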

HT29 = assay: CellTiterGlo viability assay, HT29; type: cell-based; conditions: Homo sapiens, read-out: IC50 HT29
Method: (§2) In vitro viability assay were performed to assess the effects of compounds on cell viability in selected cell lines over ˜72 hrs using the CellTiterGlo (CTG, Promega-G7573) assay. The tests were performed in duplicates with treatment of compounds at 9 points, 3.16 folds titration in 96 well plates over ˜72 hrs. The compound starting concentrations were 198 μM. Cell viability assay using CellTiterGlo in 96-well plate were performed. Compound treatment 72 hrs, standard growth conditions, duplicates. Compounds were dissolved to 40 mM with thawed […]. Compounds were serially diluted at 3.16 fold in thawed DMSO, and warmed to 37° C. before being dissolved in media (2 μl+200 μl). After compounds were dissolved in media, media containing compounds were warmed to 37° C. in incubator and then compounds in media were added to cell plates (50 μl+50 μl) in duplicates. The compounds' final concentrations were from […] to 19.9 nM. All compound solubilities were checked and recorded again, then the plates were transferred to CO2 tissue culture incubator immediately and incubated for 3 days. DMSO final concentration is 0.5%.

HL-60 = assay: CellTiterGlo viability assay, HL-60; type: cell-based; conditions: Homo sapiens, read-out: IC50 HL-60
Summary of the method: as §1

human T-lymphocyte CEM = assay: Cell proliferation (Coulter count) assay, CEM; type: cell-based; conditions: 72 h, read-out: absolute IC50, CEM
Summary of the method: (§3)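 Cells grown in DMEM with 10% FBS. HeLa seeded at 10 000 cells/well, compound added after 24 h, counted day 5; L1210 and CEM seeded at 60 000 cells/well with compound, counted after 48 h and 72 h respectively. IC50 is concentration halving proliferation by Coulter count.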

K562 = assay: CellTiterGlo viability assay, K562; type: cell-based; conditions: Homo sapiens, read-out: IC50 K562
Summary of the method: as §1

Murine leukemia L1210 = assay: Cell proliferation (Coulter count) assay, L1210; type: cell-based; conditions: Mus musculus, 48 h, read-out: absolute IC50, L1210
Summary of the method: as §3

MiaPaCa-2 = assay: CellTiterGlo viability assay, MiaPaCa-2; type: cell-based; conditions: Homo sapiens, read-out: IC50 MiaPaCa-2
Method: as §2

Z138 = assay: CellTiterGlo viability assay, Z138; type: cell-based; conditions: Homo sapiens, read-out: IC50 Z138
Method: as §2

KG-1 = assay: CellTiterGlo viability assay, KG-1; type: cell-based; conditions: Homo sapiens, read-out: IC50 KG-1
Summary of the method: as §1

HepG2 = assay: CellTiterGlo viability assay, HepG2; type: cell-based; conditions: Homo sapiens, read-out: IC50 HepG2
Method: as §2

HS445 = assay: CellTiterGlo viability assay, HS445; type: cell-based; conditions: read-out: IC50 HS445
Method: as §2

HEL92.1.7 = assay: CellTiterGlo viability assay, HEL92.1.7; type: cell-based; conditions: Homo sapiens, read-out: IC50 HEL92.1.7
Summary of the method: as §1

Row | SMILES | IC50 (human T-lymphocyte CEM) [µM] | IC50 (Murine leukemia L1210) [µM] | IC50 (RPMI-8226; RPMI-8226, 72 h) [µM] | IC50 (HT29; HT-29, 72 h) [µM] | IC50 (HL-60; HL-60, 72 h) [µM] | IC50 (K562; K562, 72 h) [µM] | IC50 (MiaPaCa-2; MIA PaCa-2, 72 h) [µM] | IC50 (Z138; Z-138, 72 h) [µM] | IC50 (KG-1; KG-1, 72 h) [µM] | IC50 (HepG2; HepG2, 72 h) [µM] | IC50 (HS445; Hs 445, 72 h) [µM] | IC50 (HEL92.1.7; HEL 92.1.7, 72 h) [µM] | also measured
1 | Nc1ncnc2c1nc(Cl)n2[C@@H]1O[C@H](COP(=O)(NCC(=O)OCc2ccccc2)NCC(=O)OCc2ccccc2)C(O)C1O (some centres unmarked) [Compound AC, 8-Chloroadenosine 5′-O-bis(benzyloxy-glycin-N-yl) phosphate] | 0.1 to 5 | 0.1 to 5 | – | – | – | – | – | – | – | – | – | – | IC50 (RPMI-8226; RPMI-8226, CellTiterGlo, 72 hrs): 0.1 to 5 µM; IC50 (HT29; HT-29, CellTiterGlo, 72 hrs): 0.1 to 5 µM; IC50 (HL-60; HL-60, CellTiterGlo, 72 hrs): 0.1 to 5 µM; IC50 (K562; K562, CellTiterGlo, 72 hrs): 0.1 to 5 µM; IC50 (MiaPaCa-2; MIA PaCa-2, CellTiterGlo, 72 hrs): 0.1 to 5 µM; IC50 (Z138; Z-138, CellTiterGlo, 72 hrs): 0.1 to 5 µM; IC50 (KG-1; KG-1, CellTiterGlo, 72 hrs): 0.1 to 5 µM; IC50 (HepG2; HepG2, CellTiterGlo, 72 hrs): 0.1 to 5 µM; IC50 (HS445; Hs 445, CellTiterGlo, 72 hrs): 5 to 15 µM; IC50 (HEL92.1.7; HEL 92.1.7, CellTiterGlo, 72 hrs): 0.1 to 5 µM
2 | C[C@H](NP(=O)(OC[C@H]1O[C@@H](n2c(Cl)nc3c(N)ncnc32)C(O)C1O)Oc1cccc2ccccc12)C(=O)OCc1ccccc1 (stereo partly drawn) [Compound D, (2S)-Benzyl 2-(((((2R,3S,4R,5R)-5-(6-amino-8-chloro-9H-purin-9-yl)-3,4-dihydroxy-tetrahydrofuran-2-yl)methoxynaphthalene-1-yloxy)phosphoryl)amino)propanoate] | 0.1 to 5 | 5 to 15 | 0.1 to 5 | 0.1 to 5 | 5 to 15 | 0.1 to 5 | 0.1 to 5 | 0.1 to 5 | 5 to 15 | 0.1 to 5 | 5 to 15 | 0.1 to 5 | –
3 | CCCCCOC(=O)[C@H](C)NP(=O)(OC[C@H]1O[C@@H](n2c(Cl)nc3c(N)ncnc32)C(O)C1O)Oc1cccc2ccccc12 (stereo partly drawn) [Compound E, (2S)-Pentyl 2-(((((2R,3S,4R,5R)-5-(6-amino-8-chloro-9H-purin-9-yl)-3,4-dihydroxy-tetrahydrofuran-2-yl)methoxnaphthalene-1-yloxy)phosphoryl)amino)propanoate] | 0.1 to 5 | 5 to 15 | 0.1 to 5 | 0.1 to 5 | 0.1 to 5 | 0.1 to 5 | 0.1 to 5 | 0.1 to 5 | 0.1 to 5 | 0.1 to 5 | 15 to 100 | 0.1 to 5 | –
4 | CC(C)C[C@H](NP(=O)(OC[C@H]1O[C@@H](n2c(Cl)nc3c(N)ncnc32)C(O)C1O)Oc1ccccc1)C(=O)OCc1ccccc1 (stereo partly drawn) [V, 5′-([(Benzyloxy-L-leucin-N-yl)-phenyl]-phosphatyl) 8-chloroadenosine] | – | 15 to 100 | 0.1 to 5 | 0.1 to 5 | 5 to 15 | 0.1 to 5 | 0.1 to 5 | 0.1 to 5 | 5 to 15 | 0.1 to 5 | 15 to 100 | 0.1 to 5 | –
